Laboratory results from patent US20100292335A1, “USE OF ORGANIC COMPOUNDS” (priority 2007, published 2010).

Tested on: bradykinin peptides BK-(1-7), BK-(1-9)
Assay: Bradykinin peptide levels in blood and tissues of non-diabetic and streptozotocin-diabetic (mRen-2)27 rats after 16 weeks aliskiren
Format: in vivo, transgenic (mRen-2)27 rats
Conditions: for Effect of aliskiren on BK-(1-7) level / Effect of aliskiren on BK-(1-9) level / Effect of aliskiren on BK-(1-7)/(1-9) ratio: 10 mg/kg/day 16 weeks, 10 mg/kg/day; for Heart BK-(1-7), Mean ± SEM / Heart BK-(1-7)/(1-9) ratio, Mean ± SEM / Heart BK-(1-9), Mean ± SEM: aliskiren 10 mg/kg/day 16 weeks
Procedure: As an example, diabetes is induced in 6 week old female heterozygous transgenic (mRen-2)27 rats by administration of 55 mg/kg streptozotocin diluted in […], pH 4.5 by tail vein injection. Non-diabetic rats are injected with citrate buffer alone [Campbell D J, Kelly D J, Wilkinson-Berka J L, Cooper M E, Skinner S L. Increased bradykinin and “normal” angiotensin peptide levels in diabetic Sprague-Dawley and transgenic (mRen-2)27 rats. Kidney Int 1999; 56:211-221.1. Diabetic and non-diabetic rats are randomized to receive either no drug or aliskiren (10 mg/kg/day by osmotic minipump) from 6-7 weeks of age for a duration of 16 weeks. The minipumps are changed every 2 weeks and the amount of aliskiren in the minipumps is adjusted according to the body weight of the rats. Diabetic rats are injected subcutaneously with 2-4 units insulin (Ultratard, Novo Nordisk, Denmark).every second day (3 times a week). If rats have continuously elevated blood glucose levels (>33.3 mmol/L) over a couple of weeks, they are injected with 3 units every day. When glucose levels decrease to 33.3 mmol/L they are administered 2-4 units insulin every second day. After 16 weeks drug treatment, rats are anesthetized with ketamine (75 mg/kg) and xylazine (10 mg/kg) in combination, and blood and tissue is collected for peptide assay. Peptides are measured as previously described [Lawrence A C, Evin G, Kladis A, Campbell D J. An alternative strategy for the radioimmunoassay of angiotensin peptides using amino-terminal-directed antisera: measurement of eight angiotensin peptides in human plasma. J Hypertens 1990; 8:715-724; Campbell D J, Lawrence A C, Towrie A, Kladis A, Valentijn A J. Differential regulation of angiotensin peptide levels in plasma and kidney of the rat. Hypertension 1991; 18:763-773; Campbell D J, Kladis A, Duncan A-M. Nephrectomy, converting enzyme inhibition and angiotensin peptides. Hypertension 1993; 22:513-522; Campbell D J, Kladis A, Duncan A-M. Bradykinin peptides in kidney, blood, and other tissues of the rat. Hypertension 1993; 21:155-165; Campbell D J, Kladis A, Duncan A-M. Effects of converting enzyme inhibitors on angiotensin and bradykinin peptides. Hypertension 1994; 23:439-449; Campbell D J, Rong P, Kladis A, Rees B, Skinner S L. Angiotensin and bradykinin peptides in the TGR(mRen-2)27 rat. Hypertension 1995; 25:1014-1020]. Only the left kidney is collected for peptide assay. The heart refers to the cardiac ventricles (both right and left ventricle). The Ang I levels in heart are below the limit of detection of the assay.
There are 4 groups of rats: • 1. Non-diabetic control. • 2. Non-diabetic administered aliskiren 10 mg/kg/day. • 3. Diabetic control. • 4. Diabetic administered aliskiren 10 mg/kg/day.

[1] = Heart, control rats, listed as Aliskiren
[2] = Heart, diabetic rats, listed as Aliskiren

COCCCOc1cc(C[C@@H](C[C@H](N)[C@@H](O)C[C@H](C(=O)NCC(C)(C)C(N)=O)C(C)C)C(C)C)ccc1OC [aliskiren, 2(S),4(S),5(S),7(S)-N-(3-amino-2,2-dimethyl-3-oxopropyl)-2,7-di(1-methylethyl)-4-hydroxy-5-amino-8-[4-methoxy-3-(3-methoxy-propoxy)phenyl]-octanamide]
Effect of aliskiren on BK-(1-7) level (Blood, control rats): does not affect | Effect of aliskiren on BK-(1-9) level (Blood, control rats): does not affect | Effect of aliskiren on BK-(1-7) level (Blood, diabetic rats): does not affect | Effect of aliskiren on BK-(1-7)/(1-9) ratio (Blood, diabetic rats): increase | Effect of aliskiren on BK-(1-9) level (Blood, diabetic rats): does not affect | Effect of aliskiren on BK-(1-7) level (Brain, control rats): does not affect | Effect of aliskiren on BK-(1-9) level (Brain, control rats): does not affect | Effect of aliskiren on BK-(1-7) level (Brain, diabetic rats): does not affect | Effect of aliskiren on BK-(1-9) level (Brain, diabetic rats): does not affect | Effect of aliskiren on BK-(1-7) level (Heart, control rats): increased | Effect of aliskiren on BK-(1-7)/(1-9) ratio (Heart, control rats): did not affect | Effect of aliskiren on BK-(1-9) level (Heart, control rats): increased | Effect of aliskiren on BK-(1-7) level [1]: increase | Effect of aliskiren on BK-(1-7)/(1-9) ratio [1]: no change | Effect of aliskiren on BK-(1-9) level [1]: increase | Heart BK-(1-7), Mean ± SEM (Heart, control rats): 19.2 ± 2.5 fmol/g | Heart BK-(1-7)/(1-9) ratio, Mean ± SEM (Heart, control rats): 1.88 ± 0.18 mol/mol | Heart BK-(1-9), Mean ± SEM (Heart, control rats): 10.6 ± 1.2 fmol/g | Effect of aliskiren on BK-(1-7) level (Heart, diabetic rats): increased | Effect of aliskiren on BK-(1-7)/(1-9) ratio (Heart, diabetic rats): did not affect | Effect of aliskiren on BK-(1-9) level (Heart, diabetic rats): increased | Effect of aliskiren on BK-(1-7) level [2]: increase | Effect of aliskiren on BK-(1-7)/(1-9) ratio [2]: no change | Effect of aliskiren on BK-(1-9) level [2]: increase | Heart BK-(1-7), Mean ± SEM (Heart, diabetic rats): 13.9 ± 1.5 fmol/g | Heart BK-(1-7)/(1-9) ratio, Mean ± SEM (Heart, diabetic rats): 2.47 ± 0.37 mol/mol | Heart BK-(1-9), Mean ± SEM (Heart, diabetic rats): 6.4 ± 0.7 fmol/g | Effect of aliskiren on BK-(1-7) level (Kidney, control rats): does not affect | Effect of aliskiren on BK-(1-9) level (Kidney, control rats): does not affect | Effect of aliskiren on BK-(1-7) level (Kidney, diabetic rats): does not affect | Effect of aliskiren on BK-(1-9) level (Kidney, diabetic rats): does not affect | Effect of aliskiren on BK-(1-7) level (Lung, control rats): does not affect | Effect of aliskiren on BK-(1-9) level (Lung, control rats): does not affect | Effect of aliskiren on BK-(1-7) level (Lung, diabetic rats): does not affect | Effect of aliskiren on BK-(1-9) level (Lung, diabetic rats): does not affect
